Tests used:
[1] = target: T1, M3 muscarinic receptor subtype (hM3) (Homo sapiens, UniProt P20309); test: Radioligand binding assay ([3H]-NMS displacement); settings: tested in this or a similar assay
T1 construct: expressed in transfected cells
Description: CHO cell lines stably expressing cloned human hM1, hM2, hM3 and hM4 muscarinic receptor subtypes, respectively, were grown to near confluency in medium consisting of HAM's F-12 supplemented with 10% FBS and 250 μg/mL Geneticin. The cells were grown in a 5% CO2, 37° C. incubator and lifted with 2 mM EDTA in dPBS. Cells were collected by 5 minute centrifugation at 650×g, and cell pellets were either stored frozen at −80° C. or membranes were prepared immediately. For membrane preparation, cell pellets were resuspended in lysis buffer and homogenized with a Polytron PT-2100 tissue disrupter (Kinematica AG; 20 seconds×2 bursts). Crude membranes were centrifuged at 40,000×g for 15 minutes at 4° C. […] The protein concentration of the membrane suspension was determined by the method described in Lowry, O. et al., Journal of Biochemistry 193:265 (1951). […]
Radioligand binding assays were performed in 96-well microtiter plates in a total assay volume of 100 μL. […] Filter plates were rinsed three times with wash buffer (10 mM HEPES) to remove unbound radioactivity. […] The plates were then counted in a PerkinElmer Topcount liquid scintillation counter (PerkinElmer Inc., Wellesley, Mass.). Binding data were analyzed by nonlinear regression analysis with the GraphPad Prism Software package (GraphPad Software, Inc., San Diego, Calif.) using the one-site competition model. […]

[2] = Thermal analysis (DSC); format: physicochemical; settings: DSC trace
Description: Differential scanning calorimetry (DSC) was performed using a TA Instruments Model Q-10 module with a Thermal Analyst controller. Data were collected and analyzed using TA Instruments Thermal Solutions software. A sample of about 1 mg was accurately weighed into an aluminum pan with lid. The sample was evaluated using a linear heating ramp of 10° C./min from ambient temperature to approximately 300° C. The DSC cell was purged with dry nitrogen during use.

[3] = Dynamic moisture sorption assessment; format: physicochemical
Description: A dynamic moisture sorption (DMS) assessment (also known as a moisture sorption-desorption profile) was performed for samples of the crystalline monopropionate salt using a VTI atmospheric microbalance, SGA-100 system (VTI Corp., Hialeah, Fla. 33016). A sample size of approximately 10 mg was used and the humidity was set at the ambient value at the start of the analysis. A typical DMS analysis consisted of three scans: ambient to 2% relative humidity (RH), 2% RH to 90% RH, 90% RH to 5% RH at a scan rate of 5% RH/step. The mass was measured every two minutes and the RH was changed to the next value (+/−5% RH) when the mass of the sample was stable to within 0.01% for 5 consecutive points.

T1 sequence (P20309 whole entry): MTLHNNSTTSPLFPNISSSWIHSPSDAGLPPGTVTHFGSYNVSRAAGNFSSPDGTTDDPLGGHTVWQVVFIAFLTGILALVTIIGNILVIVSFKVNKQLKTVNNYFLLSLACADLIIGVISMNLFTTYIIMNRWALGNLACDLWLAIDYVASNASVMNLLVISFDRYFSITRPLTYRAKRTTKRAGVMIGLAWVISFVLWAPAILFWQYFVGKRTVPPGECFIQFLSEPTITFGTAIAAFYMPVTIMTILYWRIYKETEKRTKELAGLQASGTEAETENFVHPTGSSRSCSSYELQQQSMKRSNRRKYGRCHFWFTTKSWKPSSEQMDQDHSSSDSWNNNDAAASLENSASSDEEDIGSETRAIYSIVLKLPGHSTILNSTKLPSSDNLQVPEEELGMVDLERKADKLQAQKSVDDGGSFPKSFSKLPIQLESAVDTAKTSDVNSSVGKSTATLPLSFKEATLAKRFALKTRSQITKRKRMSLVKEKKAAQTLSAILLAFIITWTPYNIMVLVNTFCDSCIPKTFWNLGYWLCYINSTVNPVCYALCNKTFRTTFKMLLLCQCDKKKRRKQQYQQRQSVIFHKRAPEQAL

| SMILES | Ki [1] [nM] | thermal stability [2] | hygroscopicity (sorption/desorption profile) ([3]; DMS trace) | weight gain ([3]; humidity range of 40-70% RH, micronized material) [%] | weight gain ([3]; humidity range of 40-70% RH, unmicronized) [%] | weight gain ([3]; humidity range of 40-75% RH) [%] |
| --- | --- | --- | --- | --- | --- | --- |
| O=C(Nc1ccccc1-c1ccccc1)OC1CCN(CCCN2CCN(CCCNCc3ccc(O)cc3)C2=O)CC1 [Example 1, Biphenyl-2-ylcarbamic Acid 1-(3-{3-[3-(4-Hydroxybenzylamino)propyl]-2-oxoimidazolidin-1-yl}propyl)piperidin-4-yl Ester] | < 5 |  |  |  |  |  |
| CCC(=O)O.O=C(Nc1ccccc1-c1ccccc1)OC1CCN(CCCN2CCN(CCCNCc3ccc(O)cc3)C2=O)CC1 [Example 2, Monopropionate Crystalline Salt of Biphenyl-2-ylcarbamic Acid 1-(3-{3-[3-(4-Hydroxybenzylamino)propyl]-2-oxoimidazolidin-1-yl}propyl)piperidin-4-yl Ester] |  | good thermal stability | low hygroscopicity | 1.0 | 0.7 | 0.3 |

— patent publication US7683173B2, “Biphenyl compounds useful as muscarinic receptor antagonists” (Theravance, Inc., priority 2005, dated 2010)
